In data set [1] the test system is Mus musculus. As to the kind of experiment: Reduction in FAS mRNA levels in HFD-induced obese Jcl:MCH mouse model liver administered as supplement for 86 days measured after 100 days by RT-PCR relative to HFD-fed control. It counts as functional, organism-based.
For data set [2], the system named is 3T3-L1. As to the kind of experiment: Increase in adiponectin mRNA levels in TNFalpha-induced mouse 3T3L1 cells pretreated at 50 uM before TNF-alpha challenge relative to control. It counts as functional, cell-based.
The test system of data set [3] is Mus musculus. Nature of the data set: Antiobesity activity in HFD-induced obese Jcl:MCH mouse model assessed as decrease in subcutaneous fat administered as supplement for 86 days measured after 90 days by MRI (reference value: 20.8 +/- 1.7 %). It counts as functional. More on the design: scale not given: the % may be the effect or the level left.
Data set [4] deals with Mus musculus. Nature of the data set: Hypoglycemic activity in HFD-induced obese Jcl:MCH mouse model assessed as decrease in fasting blood glucose levels administered as supplement for 86 days measured after 92 to 94 days by OGTT relative to HFD-fed control. It counts as functional, organism-based.
Data set [5] relates to Mus musculus. As to the kind of experiment: Antiobesity activity in regular chow-fed Jcl:MCH mouse assessed as decrease in body weight administered as supplement for 86 days (reference value: 45.0 +/- 0.8 g). It counts as functional.
Data set [6] deals with Mus musculus. Nature of the data set: Reduction in SREBP1c mRNA levels in HFD-induced obese Jcl:MCH mouse model administered as supplement for 86 days measured after 100 days by RT-PCR relative to HFD-fed control. It counts as functional, organism-based.
Data set [7] deals with Mus musculus. Nature of the data set: Reduction in serum insulin levels in HFD-induced obese Jcl:MCH mouse model administered as supplement for 86 days measured after 100 days by ELISA relative to HFD-fed control. It counts as functional, organism-based.
Data set [8] has as its system Mus musculus. Nature of the data set: Antiobesity activity in HFD-induced obese Jcl:MCH mouse model assessed as decrease in visceral fat administered as supplement for 86 days measured after 90 days by MRI relative to control. It counts as functional.
For data set [9], the system named is Mus musculus. Nature of the data set: Reduction in serum leptin levels in HFD-induced obese Jcl:MCH mouse model administered as supplement for 86 days measured after 100 days by ELISA relative to HFD-fed control. It counts as functional, organism-based. On the technique in general: In an ELISA, binding on a coated surface is turned into a signal by an enzyme label.

The nature of data set [10]: Stability of the compound in simulated gastric fluid at pH 1.0 assessed as formation of shogaols. It counts as physicochemical. Particulars: simulated gi fluid.
Data set [11] can be described thus: Stability of the compound in 6 N HCl assessed as formation of shogaols. It counts as physicochemical. Particulars: buffer.
Data set [12] deals with Mus musculus. As to the kind of experiment: Antiobesity activity in HFD-induced obese Jcl:MCH mouse model assessed as decrease in body weight administered as supplement for 86 days (reference value: 51.2 +/- 2.7 g). It counts as functional.
Data set [13] has as its system Mus musculus. Nature of the data set: Reduction in ACC mRNA levels in HFD-induced obese Jcl:MCH mouse model liver administered as supplement for 86 days measured after 100 days by RT-PCR relative to HFD-fed control. It counts as functional, organism-based.
The test system of data set [14] is Mus musculus. Nature of the data set: Reduction in leptin mRNA levels in HFD-induced obese Jcl:MCH mouse model adipose tissue administered as supplement for 86 days measured after 100 days by RT-PCR relative to HFD-fed control. It counts as functional, organism-based.
The subject of data set [15] is Mus musculus. As to the kind of experiment: Hypoglycemic activity in HFD-induced obese Jcl:MCH mouse model assessed as decrease in post prandial blood glucose levels administered as supplement for 86 days measured after 92 to 94 days by OGTT relative to HFD-fed control. It counts as functional, organism-based.
Data set [16] concerns 3T3-L1. As to the kind of experiment: Increase in adiponectin mRNA levels in TNFalpha-induced mouse 3T3L1 cells pretreated at 25 to 50 uM before TNF-alpha challenge relative to control. It counts as functional, cell-based.
The test system of data set [17] is Mus musculus. As to the kind of experiment: Antiobesity activity in regular chow-fed Jcl:MCH mouse assessed as decrease in subcutaneous fat administered as supplement for 86 days measured after 90 days by MRI (reference value: 5.4 +/- 1.7%). It counts as functional. More on the design: scale not given: the % may be the effect or the level left.
For data set [18], the system named is Mus musculus. Nature of the data set: Reduction in TNFalpha mRNA levels in HFD-induced obese Jcl:MCH mouse model adipose tissue administered as supplement for 86 days measured after 100 days by RT-PCR relative to HFD-fed control. It counts as functional, organism-based.
Data set [19] has as its system 3T3-L1. As to the kind of experiment: Increase in adiponectin mRNA levels in TNFalpha-induced mouse 3T3L1 cells pretreated at 10 uM before TNF-alpha challenge relative to control. It counts as functional, cell-based.

Each structure is given as a SMILES string. The source made the active and inactive calls. No cut-off for these calls is given here.

Turning to `CCCCCC(O)CC(=O)NCc1ccc(O)c(OC)c1` (configuration not stated), the result with Mus musculus [1], in the data set on 3T3-L1 [2], with Mus musculus [4], in the data set with Mus musculus [6], in the data set with Mus musculus [7] and in the data set with Mus musculus [9] was Active. For the same compound, the outcome in the data set with Mus musculus [13], with Mus musculus [14], in the data set with Mus musculus [15], in the data set on 3T3-L1 [16] and with Mus musculus [18] was Active. Besides, the Activity in the data set with Mus musculus [3] is 10.9%; in the data set on Mus musculus [5] it was 41.6 g; in the data set on Mus musculus [8], 1.84 g; in the data set with Mus musculus [12], 41.6 g; with Mus musculus [17], 6.7%. Further, the Stability result in [10] and in data set [11] was “Stable” each time.

In the case of `CCCCCC(O)CC(=O)CCc1ccc(O)c(OC)c1` (configuration not stated), the outcome with Mus musculus [1], with Mus musculus [4], in the data set on Mus musculus [6], in the data set on Mus musculus [7], in the data set on Mus musculus [9] and in the data set on Mus musculus [13] was Active. Further, the outcome in the data set with Mus musculus [14], with Mus musculus [15], in the data set on 3T3-L1 [16] and in the data set with Mus musculus [18] was Active. Further, the Activity with Mus musculus [3] amounted to 6.7%; in the data set on Mus musculus [8], 3.5 g; in the data set on Mus musculus [12] it was 47.1 g.

`CN(CCOc1ccc(CC2SC(=O)NC2=O)cc1)c1ccccn1` (configuration not stated): in the data set with 3T3-L1 [19], the outcome was Active.

Source of the values: ChEMBL document CHEMBL2150906, “Synthesis of a new [6]-gingerol analogue and its protective effect with respect to the development of metabolic syndrome in mice fed a high-fat diet” (J Med Chem, 2011).
